The values below come from PubChem BioAssay AID179 (DTP/NCI, 2004).

Values joined by “and” are separate entries in the source; they are usually repeats but may differ in a detail not shown here. Equal values may be shown once. Active and inactive are the calls of the source.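 The calls were made as follows: active = compounds giving half or more protection of infected cells from virus-caused growth loss, again on retest; inactive = the rest.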

The experiment has as its system CEM cells HIV-1 protection, formazan growth assay. In words: NCI AIDS Antiviral Assay. Particulars: for IC50: measured here: growth of uninfected CEM cells. The essentials:
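Category rules: moderately active means at least 50% protection on retest, and confirmed active means 100% protection reproducibly. The underlying data came from a formazan growth assay in HIV-1-infected CEM cells.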

For orientation: EC50 means the midpoint of the concentration-response curve. In general, IC50 refers to the concentration that inhibits the measured activity by half. Lower therefore signals inhibition by little substance. For `CC1(C)OC1COc1c2occc2cc2ccc(=O)oc12` (centres undefined), the EC50 was more than 155 µM and the concentration for half-maximal inhibition (IC50) came to 74.1 µM.

As to `CC(=O)O[C@H]1CC[C@@]2(C)C(CC[C@]3(C)C2CC[C@]2(C)Oc4c(C)cc(O)cc4C[C@@H]23)C1(C)C` (some centres undefined), the result was inactive. For the compound `CC1(C)C2CCC1(C)C(NC(=O)CCN1CCOCC1)C2` (centres undefined), the EC50 was more than 851 µM and the IC50 is 537 µM. For `CC(C)(C)C1CCC2c3c([nH]c4ccccc34)C3C(=O)N(c4ccccc4Cl)C(=O)C3C2C1` (centres undefined) the same measures were more than 200 µM and 16.6 µM. For `COc1ccc(NS(=O)c2c(C)cc(C)cc2C)cc1` (centres undefined) the same measures were more than 200 µM and 12 µM. The like results for `CCCCCCCCS(=O)(=O)O` were, in that order, more than 200 µM and more than 200 µM. Regarding `N#CC(/C(=N/N=C(N)N)C(=O)Nc1ccccc1[N+](=O)[O-])c1nc(-c2ccc([N+](=O)[O-])cc2)cs1` (centres undefined), the EC50 is more than 27.5 µM and the IC50 is more than 27.5 µM.

As to `CC1(C)C2=CCCC(=O)[C@@]2(C)CC[C@@H]1O`, the result was inactive.

`Cc1nc(C)c2c(n1)Oc1ccc3ccccc3c1C2`: the EC50 was more than 49 µM and the IC50 is more than 49 µM. As to `C[C@H]1CC[P+](C)(c2ccccc2)C1` (some centres undefined), the EC50 is more than 912 µM and the IC50 was more than 912 µM. With `CC(C)[P+](c1ccccc1)(c1ccccc1)c1ccccc1`, the EC50 was more than 200 µM and the IC50 was 5.5 µM. Regarding `O=C1C=CC(=O)c2c1ccc1c3ccccc3n(Cc3ccc([N+](=O)[O-])cc3)c21`, the EC50 is more than 200 µM and the IC50 came out at 2.82 µM.

Take `NC(CCP(=O)(O)CCC1C=CC=CC1)C(=O)O` (centres undefined): the EC50 is more than 200 µM and the IC50 was more than 200 µM. For `O=C1c2ccccc2C(=O)c2sc(Nc3ccccc3Cl)nc21`, the EC50 was more than 7.94 µM and the IC50 is more than 7.94 µM. Regarding `OCC1=C[C@@H](O)[C@@H]2C=CO[C@@H](OC3OC(CO)C(O)C(O)C3O)[C@H]12` (some centres undefined), the EC50 was more than 724 µM and the IC50 was more than 724 µM. In the case of `Cc1cnc2c(ccc3c(C)c(C)cnc32)c1C.Cc1cnc2c(ccc3c(C)c(C)cnc32)c1C.O=C1OC(C(O)C[O-])C(O)=C1O.[Cu+]`, the EC50 is more than 25.1 µM and the half-inhibitory concentration (IC50) was found to be 0.912 µM. For `Cc1ccc(-c2cc(-c3ccccc3)[s+]c3ccc(C)cc23)cc1` the same measures were more than 200 µM and 6.03 µM. Turning to `CCCNC(=O)OCCCOC(=O)/C=C(\C(=O)OCCCOC(=O)NCCC)N1[C@H](C)Cc2c(-c3cc(-c4cc(-c5c(O)cc(O)c6c5C[C@@H](C)N[C@@H]6C)c5cc(C)cc(OC)c5c4O)c(O)c4c(OC)cc(C)cc34)c(O)cc(O)c2[C@H]1C`, the EC50 is more than 25.1 µM and the IC50 was more than 25.1 µM. In the case of `COc1c(-c2ccccc2)oc2c(ccc3occc32)c1=O`, the EC50 was more than 95.5 µM and the IC50 was more than 95.5 µM.

On to `CC(=O)COC(=O)CC(C)=O`, for which the outcome was inactive.

On to `CC(=O)NC1(C)C2CCC3(C)N=C(C)C1CC3C2` (centres undefined), for which the outcome was inactive. On to `COc1ccc(Nc2nc3ccccc3nc2-c2cccs2)cc1`, for which the EC50 is more than 15.5 µM and the IC50 is more than 15.5 µM. Regarding `O=[N+]([O-])c1ncn(C2OC(CO)C(O)C2O)c1S` (centres undefined), the EC50 is more than 200 µM and the IC50 was more than 200 µM. As to `O=c1[nH]c(=O)c2ncn(-c3ccc([N+](=O)[O-])cn3)c2[nH]1`, the result was inactive. Still for that read-out and setting: under `CCCN(CCC)C(=O)C(=O)c1c(N)[nH]n(-c2ccccc2)c1=O` stands “inactive”. As for `COC(=O)CCCC(=O)C1=Nc2ccccc2CN(c2ccc(Cl)cc2)N1`, the EC50 was more than 200 µM and the concentration for half-maximal inhibition (IC50) is 126 µM. The like results for `C=C1CN(S(=O)(=O)c2ccc(C)cc2)CCCN(C2CCCC2)CCCN(S(=O)(=O)c2ccc(C)cc2)C1` were, in that order, more than 200 µM and 4.07 µM. On to `O=C(CN1C(=O)c2cccc3c(Br)ccc(c23)C1=O)c1ccc(Cl)cc1`, for which the EC50 was more than 200 µM and the IC50 came out at 33.1 µM. In the case of `O=C1CCCc2cc3c(cc21)CCC3C(=O)O` (centres undefined), the outcome was inactive. On to `C=CC[C@@]12CCC(=O)C=C1CCCC2=O`, for which the result was inactive. For the compound `O=C1C(c2ccccc2)=[N+]([O-])c2cc([N+](=O)[O-])ccc21`, the outcome was inactive. For `Cc1cn(C2CC(N=[N+]=[N-])C(C(=O)O)O2)c(=O)[nH]c1=O` (centres undefined), the EC50 was 11.7 µM and the IC50 is more than 200 µM. As to `CC(=O)O[C@]1(C)OC(=O)[C@@H](CC(C)C)N1[N+](=O)[O-]`, the outcome was inactive.

Take `NCCCCN(CCCN)C(=O)OCc1ccccc1`: the EC50 is more than 200 µM and the IC50 is more than 200 µM. Consider `N#C/C(=C\c1ccc(C#N)cc1)C(=O)O`, for which the EC50 was more than 36.3 µM and the IC50 was more than 36.3 µM. For the compound `COc1ccc2c(c1)-c1c(c3cc(OC)ccc3n1CCCN(C)C)CC2`, the EC50 is more than 200 µM and the IC50 came to 5.5 µM. Consider `COc1ccc(/C=C2\CCC(C)/C(=C\c3ccc(OC)c(OC)c3)C2=O)cc1OC` (centres undefined), for which the EC50 is more than 151 µM and the IC50 was determined as 7.94 µM. For `CCCC1C(C#N)(C#N)C(C#N)=C(N)C1(C)C(C)=O` (centres undefined), the EC50 was more than 200 µM and the IC50 is more than 200 µM. Consider `COc1ccc(NC(=O)CC(=O)N2N=C(N(CCC#N)c3cccc(C)c3)CC2c2ccccc2)cc1` (centres undefined), for which the EC50 is more than 100 µM and the IC50 was more than 100 µM. `COC(=O)CC1(C(=O)OC)Nc2cc(Cl)c(Cl)cc2S(=O)(=O)N1O` (centres undefined): the EC50 is 69.2 µM and the IC50 amounted to 91.2 µM. For `O=C1C[C@H](c2ccccc2)O[C@@H](c2ccccc2)C1` the same measures were more than 200 µM and more than 200 µM.

Consider `O=C(NNC(=O)c1ccccc1O)c1cccc(Br)c1`, for which the EC50 was more than 200 µM and the IC50 worked out at 6.46 µM. Take `Cc1ccc2c(c1C)C(=O)C1(Cc3cc4c(cc3C1=O)CCC4)C2` (centres undefined): the EC50 was more than 100 µM and the concentration for half-maximal inhibition (IC50) was more than 100 µM. For `O=S(O)CCCCCSSCCCCSSCCCCCS(=O)O`, the result was inactive. For the compound `NC(Cc1ccc(S(=O)(=O)O)cc1)C(=O)NC(Cc1ccc(S(=O)(=O)O)cc1)C(=O)NC(Cc1ccc(S(=O)(=O)O)cc1)C(=O)NC(Cc1ccc(S(=O)(=O)O)cc1)C(=O)O` (centres undefined), the EC50 was more than 200 µM and the concentration for half-maximal inhibition (IC50) is more than 200 µM. In the case of `Cc1cccc(-c2nnc3s/c(=C\c4ccc5c(c4)OCO5)c(=O)n23)c1`, the EC50 is more than 27.5 µM and the IC50 was more than 27.5 µM.

For the compound `COc1ccc(/C=N/Nc2nc3ccccc3c(=O)n2-c2ccccc2)c(OCc2ccccc2)c1`, the EC50 is more than 200 µM. In the case of `N#C/C(N)=C(\C#N)N=C1OCC(O)C(O)C1O` (centres undefined), the outcome was inactive. In the case of `Cc1ccc([N+](=O)[O-])c2c(NCCNC(=O)Cn3ccnc3[N+](=O)[O-])ccnc12`, the EC50 was more than 100 µM and the IC50 came to 79.4 µM. For `O=C(/C=C/c1ccc[nH]1)c1ccccc1`, the EC50 was more than 347 µM and the half-maximal inhibitory concentration (IC50) came to 120 µM. With `c1ccc(SSc2ccccn2)nc1`, the EC50 was more than 200 µM and the IC50 turned out to be 5.13 µM. In the case of `C1=C(N2CCOCC2)N(c2ccccc2)c2ccccc2N=C1N1CCCC1`, the result was inactive. The same measure, in the same setting: under `Cc1cc(Cl)ccc1NC(=O)C1C(=O)N(c2ccc(Cl)cc2C)C(=O)/C1=N\N` (centres undefined) stands “inactive”; under `COc1ccc2occ(CCC(=O)O)c2c1`, “inactive”. Regarding `COc1ccc(/C=N/NS(=O)(=O)c2ccccc2)cc1`, the result was inactive. With `CN1C(=O)[C@H](c2c[nH]c3ccccc23)[C@H](c2c[nH]c3ccccc23)C1=O`, the EC50 was more than 129 µM and the concentration for half-maximal inhibition (IC50) was determined as 38 µM. With `CCOC1N(C2CC(N=[N+]=[N-])C(CO)O2)C(=O)NC(=O)C1(C)Br` (centres undefined), the EC50 is 0.00813 µM and 0.00631 µM; the concentration for half-maximal inhibition (IC50) was 22.4 µM and 17.4 µM. Turning to `CCn1cc(C(=O)O)c(=O)c2ccc(-c3ccncc3)cc21`, the outcome was inactive. On to `CC(=O)OC(CC1(C)C(C)CCC23COC(=O)C2=CCCC31)C1=CC(=O)OC1O` (centres undefined), for which the EC50 was more than 447 µM and the IC50 is more than 447 µM.

Turning to `COc1c(C)cc(Cc2cc(C)c(OC)c(Br)c2)cc1Br`, the EC50 was more than 200 µM and the IC50 came out at 91.2 µM. For `CCCCOc1cc(C[S+]2CCCC2)c(OC)cc1C[S+]1CCCC1` the same measures were more than 145 µM and 14.8 µM. With `Cc1cccc(NC(=O)CC2C(=O)Nc3ccccc3S2(=O)=O)c1C` (centres undefined), the EC50 is more than 5.62 µM and the concentration for half-maximal inhibition (IC50) is more than 5.62 µM. As for `COC(C[C@H]1CCCC[C@]1(O)/C(=C\CO[Si](C(C)C)(C(C)C)C(C)C)Sc1ccccc1)OC`, the EC50 was more than 200 µM and the IC50 amounted to 72.4 µM. The like results for `C=CCCCCCCCCC(=O)ON(Cc1ccc(O)c(OC)c1)C(=O)C(F)(F)F` were, in that order, more than 200 µM and more than 200 µM. As for `CN1C(c2ccccc2)CC(=NOCc2ccccc2)CC1c1ccccc1` (centres undefined), the EC50 was more than 200 µM and the IC50 turned out to be 8.71 µM.

Regarding `CCOC(=O)C1(Cc2ccccc2)Cc2cc3c(cc2C1=O)CCC3` (centres undefined), the EC50 is more than 200 µM and the IC50 was determined as 14.8 µM. For `C#CC(O)/C=C/C(O)CCCC(O)CC#CC(O)C#CC(O)CCCC(O)/C=C/CCCCCC(=O)CCCCCCCCCCCCCC(O)C(O)C#CC(=O)O` (centres undefined) the same measures were more than 100 µM and 58.9 µM. For `CCOC(=O)c1ncn2c1[nH]c(=O)c1ccccc12` the same measures were more than 7.41 µM and more than 7.41 µM. For `COC(OC)C1OC(CO)C(n2cc(F)c(=O)[nH]c2=O)C1O` (centres undefined) the same measures were more than 200 µM and more than 200 µM.

Take `CCOC(=O)/C(=C\c1ccc([N+](=O)[O-])cc1)C(C)=O`: the EC50 was more than 257 µM and the IC50 came out at 64.6 µM.

Regarding `C/C(=N/NC(=S)N1CC2CCC(CC2)C1)c1cnccn1`, the EC50 is more than 2.24 µM and the IC50 was found to be 0.049 µM.

In the case of `C=CC[P@]1(=O)O[C@H](c2ccccc2)[C@H](C)N1C`, the outcome was inactive. As for `CC(C)n1c(=O)n(-c2ccccc2)n(C(C)(C)C)c1=O`, the EC50 was more than 200 µM and the half-inhibitory concentration (IC50) was more than 100 µM.

Consider `COc1ccc2c(c1)OC(=O)C(S(=O)(=O)c1ccccc1)C2` (centres undefined), for which the EC50 was more than 295 µM and the IC50 was more than 295 µM.
